This is an account of results in patent publication US20240016777A1, “COMPOUNDS AND METHODS FOR TREATING VIRAL INFECTIONS” (priority 2020, published 2024).

Each structure is given as a SMILES string. Like-named read-outs stand apart in the source and are kept apart here.

The assay has as its target SARS-CoV-2 M^pro (Severe acute respiratory syndrome coronavirus 2 (2019-nCoV) (SARS-CoV-2), UniProt P0DTD1). Description: biochemical. To be noted: for IC50: compounds evaluated at 0.015-300 μM, read-out: IC50.
[1] abbreviates: read-out: Activity (% enzyme activity by fluorescence relative to initial enzyme activity), compound at 17 μM, duplicates, 20 min pre-incubation.
[2] abbreviates: compound at 17 μM, duplicates, 20 min pre-incubation, read-out: Activity (% enzyme activity by fluorescence relative to initial enzyme activity).
Setting [3] is: compound at 17 μM, duplicates, 20 min pre-incubation.

For `COc1ccc(-c2oc3c(CC=C(C)C)c(O[C@@H]4O[C@H](CO)[C@@H](O)[C@H](O)[C@H]4O)cc(O)c3c(=O)c2O[C@@H]2O[C@@H](C)[C@H](O)[C@@H](O)[C@H]2O[C@@H]2O[C@@H](C)[C@H](O)[C@@H](O)[C@H]2O)cc1` [Epimedin C], the remaining activity at 17 µM under setting [1] lay in the range of 10 to 80%.

On to `COc1ccc(-c2oc3c(CC=C(C)C)c(O[C@@H]4O[C@H](CO)[C@@H](O)[C@H](O)[C@H]4O)cc(O)c3c(=O)c2O[C@@H]2O[C@@H](C)[C@H](OC(C)=O)[C@@H](O)[C@H]2O[C@@H]2O[C@H](COC(C)=O)[C@@H](O)[C@H](OC(C)=O)[C@H]2O)cc1` [Epimedin K], for which the remaining activity at 17 µM under setting [1] was greater than 80%.

Consider `CC(C)=CCc1cc(-c2cc(=O)c3c(O)cc(O)c(CC=C(C)C)c3o2)cc(O)c1O` [Epimedokoreanin B], for which the remaining activity at 17 µM under setting [1] is greater than 80%.

Consider `CC(C)=CCc1c(O)cc(O)c2c(=O)cc(-c3cc(O)c4c(c3)C(O)C(C(C)(C)O)O4)oc12` (stereo not shown) [Epimedokoreanin C], for which the remaining activity at 17 µM under setting [1] was greater than 80%.

As for `CC(C)=CCc1c(O[C@@H]2O[C@H](CO)[C@@H](O)[C@H](O)[C@H]2O)cc(O)c2c(=O)c(O[C@@H]3O[C@@H](C)[C@H](O)[C@@H](O)[C@H]3O)c(-c3ccc(O)cc3)oc12` [Epimedoside A], under setting [1], the remaining activity at 17 µM is greater than 80%.

For `CC(C)=CCc1c(O)c(CC=C(C)C)c2occc(=O)c2c1O` [Eriosemation], the remaining activity at 17 µM under setting [1] is greater than 80%.

As to `C=C(C)C(O)Cc1c(O)c(CC=C(C)C)c(O)c2c(=O)c(-c3ccc(O)cc3)coc12` (stereo not shown) [Erysenegalensein E], the remaining activity at 17 µM under setting [1] was greater than 80%.

Take `CC(C)=CCc1c(O)cc(O)c2c1O[C@H](c1ccc3c(c1)C=CC(C)(C)O3)CC2=O` [Euchrenone A10]: the remaining activity at 17 µM under setting [1] was greater than 80%.

Take `CC(C)=CCc1cc(-c2coc3c(CC=C(C)C)c(O)c(CC=C(C)C)c(O)c3c2=O)ccc1O` [Euchrenone B1]: under setting [1], the remaining activity at 17 µM was greater than 80%.

Regarding `CC(C)=CCc1cc([C@@H]2CC(=O)c3c(O)cc(O)c(CC=C(C)C)c3O2)ccc1O` [Euchrestaflavanone A], the remaining activity at 17 µM under setting [1] was greater than 80%.

In the case of `CC(C)=CCc1cc([C@@H]2CC(=O)c3c(O)cc(O)c(CC=C(C)C)c3O2)c(O)cc1O` [Euchrestaflavanone B], the IC50 came to 96 µM. In addition, the remaining activity at 17 µM under setting [2] is 10 to 80%.

Consider `CC(C)=CCc1c(O[C@@H]2O[C@H](CO)[C@@H](O)[C@H](O)[C@H]2O)cc(O)c2c1O[C@H](c1ccc(O)cc1)CC2=O` [Flavaprin], for which the remaining activity at 17 µM under setting [1] is greater than 80%.

Turning to `COc1cc2occ(-c3ccc(O)cc3)c(=O)c2c(O)c1CC=C(C)C` [Gancaonin G], the remaining activity at 17 µM under setting [1] was greater than 80%.

On to `COc1ccc(-c2coc3c(CC=C(C)C)c(O)cc(O)c3c2=O)cc1` [Gancaonin M], for which the remaining activity at 17 µM under setting [1] is greater than 80%.

For the compound `COc1ccc(-c2coc3cc(O)c(CC=C(C)C)c(O)c3c2=O)c(O)c1` [Gancaonin N], the remaining activity at 17 µM under setting [1] was greater than 80%.

As to `O=c1c(-c2ccc(O)cc2)coc2cc(O)cc(O)c12` [Genistein], under setting [2], the remaining activity at 17 µM was greater than 80%.

Turning to `COc1cc(O)c2c(=O)cc(-c3ccc(OC)c(-c4c(O)cc(O)c5c(=O)cc(-c6ccc(O)cc6)oc45)c3)oc2c1` [Ginkgetin], the “Mpro inhibitory activity (comparison in words)” value is reported as “comparable to amentoflavone”.

Consider `CC(C)=CCc1c(O)cc(O)c2c1O[C@H](c1ccccc1)CC2=O` [Glabranin], for which the remaining activity at 17 µM under setting [1] was greater than 80%.

For `CC(C)=CCc1c(O)cc(O)c2c1O[C@H](c1ccccc1)[C@@H](O)C2=O` [Glepidotin B], the remaining activity at 17 µM under setting [1] was greater than 80%.

In the case of `COc1c(CC=C(C)C)c(O)cc(O)c1-c1coc2cc(O)ccc2c1=O` [Glicoricone], the remaining activity at 17 µM under setting [1] was greater than 80%.

In the case of `CC(C)=CCc1cc(-c2oc3cc(O)c(CC=C(C)C)c(O)c3c(=O)c2O)ccc1O` [Glyasperin A], under setting [1], the remaining activity at 17 µM was greater than 80%.

Regarding `COc1c(CC=C(C)C)c(O)cc2c1CC(c1ccc(O)cc1O)CO2` (stereo not shown) [Glyasperin C], the remaining activity at 17 µM under setting [1] is greater than 80%.

For the compound `COc1cc2c(c(OC)c1CC=C(C)C)C[C@H](c1ccc(O)cc1O)CO2` [Glyasperin D], under setting [1], the remaining activity at 17 µM lay within 10 to 80%.

In the case of `COc1ccc(-c2oc3c(CC=C(C)C)c(O[C@@H]4O[C@H](CO)[C@@H](O)[C@H](O)[C@H]4O)cc(O)c3c(=O)c2O[C@@H]2O[C@@H](C)[C@H](O)[C@@H](O)[C@H]2O)cc1` [Icariin], under setting [1], the remaining activity at 17 µM was in the range of 10 to 80%.

Take `COc1ccc(-c2oc3c(CC=C(C)C)c(O[C@@H]4O[C@H](CO)[C@@H](O)[C@H](O)[C@H]4O)cc(O)c3c(=O)c2O)cc1` [Icariside I]: the remaining activity at 17 µM under setting [1] was greater than 80%.

`COc1ccc(-c2oc3c(CC=C(C)C)c(O)cc(O)c3c(=O)c2O)cc1` [Icaritin]: the remaining activity at 17 µM under setting [1] was greater than 80%.

As for `CC(C)=CCc1c(O)cc(O)c2c(=O)c(O[C@@H]3O[C@@H](C)[C@H](O)[C@@H](O)[C@H]3O[C@@H]3OC[C@@H](O)[C@H](O)[C@H]3O)c(-c3ccc(O)cc3)oc12` [Ikarisoside F], under setting [1], the remaining activity at 17 µM fell in the range of 10 to 80%.

As to `CC(C)=CCc1cc(-c2coc3cc(O)c(CC=C(C)C)c(O)c3c2=O)cc(O)c1O` [Imbricataflavone A], the remaining activity at 17 µM under setting [1] was greater than 80%.

Turning to `COc1cc(O)c2c(=O)c(O)c(-c3ccc(O)cc3)oc2c1CC=C(C)C` [Isoanhydroicaritin], the remaining activity at 17 µM under setting [1] was greater than 80%.

Regarding `CC(C)=CCc1c(O)ccc2c1O[C@H](c1ccc(O)cc1)CC2=O` [Isobavachin], under setting [1], the remaining activity at 17 µM is greater than 80%.

`CC(C)=CCc1c(O)cc2occ(-c3ccc4c(c3)C=CC(C)(C)O4)c(=O)c2c1O` [Isochandalone]: the remaining activity at 17 µM under setting [1] was greater than 80%.

In the case of `C=C(C)C(O)Cc1c(O)c(CC=C(C)C)c2occ(-c3ccc(O)cc3)c(=O)c2c1O` (stereo not shown) [Isoerysenegalensein E], the remaining activity at 17 µM under setting [1] was greater than 80%.

On to `C=C(C)[C@H](CC=C(C)C)Cc1c(O)cc(O)c2c1O[C@H](c1ccc(O)cc1OC)CC2=O` [Isokurarinone], for which the “Activity (% enzyme activity by fluorescence relative to initial enzyme activity)” value under setting [3] is “++ (enzyme activity as indicated by fluorescence measurements ≥10% and <80%)”.

For `CC(C)=CCc1cc(-c2oc3cc(O)cc(O)c3c(=O)c2O)ccc1O` [Isolicoflavonol], the remaining activity at 17 µM under setting [1] was in the range of 10 to 80%.

As for `O=c1cc(-c2ccc(O)cc2)oc2c([C@@H]3O[C@H](CO)[C@@H](O)[C@H](O)[C@H]3O)c(O)c([C@@H]3OC[C@H](O)[C@H](O)[C@H]3O)c(O)c12` [Isoschaftoside], the IC50 turned out to be 20 µM. Further, the “Activity (% enzyme activity by fluorescence relative to initial enzyme activity)” value under setting [3] is “++ (enzyme activity as indicated by fluorescence measurements ≥10% and <80%)”.

`CC(C)=CCc1cc(-c2coc3cc(O)cc(O)c3c2=O)ccc1O` [Isowighteone]: under setting [1], the remaining activity at 17 µM was greater than 80%.

On to `COc1cc(O)c(CC=C(C)C)c2c1C(=O)C[C@@H](c1ccc(O)cc1)O2` [Isoxanthohumol], for which, under setting [2], the remaining activity at 17 µM was greater than 80%.

Regarding `O=c1c(O)c(-c2ccc(O[C@@H]3O[C@H](CO)[C@@H](O)[C@H](O)[C@H]3O)cc2)oc2cc(O)cc(O)c12` [Kaempferol-4′-O-beta-D-glucopyranoside], the IC50 was determined as 12 µM. Besides, the remaining activity at 17 µM under setting [2] is 10 to 80%.

On to `O=c1c(O)c(-c2ccc(O)cc2)oc2cc(O)cc(O)c12` [Kaempferol], for which the remaining activity at 17 µM under setting [2] was greater than 80%.

As for `CC(C)=CCc1cc([C@@H]2CCc3ccc(O)cc3O2)c(CC=C(C)C)c(O)c1O` [Kazinol A], the remaining activity at 17 µM under setting [1] is greater than 80%.

For the compound `CC(C)=CCc1c([C@@H]2CCc3ccc(O)cc3O2)cc2c(c1O)OC(C)(C)C=C2` [Kazinol B], under setting [1], the remaining activity at 17 µM was greater than 80%.

For the compound `CC(C)=CCc1c([C@H]2CCc3ccc(O)cc3O2)ccc(O)c1O` [Kazinol U], the remaining activity at 17 µM under setting [1] is greater than 80%.

For `COc1ccc(-c2oc3c(CC=C(C)C)c(O)cc(O)c3c(=O)c2O[C@@H]2O[C@@H](C)[C@H](OC(C)=O)[C@@H](O[C@@H]3O[C@H](COC(C)=O)[C@@H](O)[C@H](O)[C@H]3O)[C@H]2O)cc1` [Korepimedoside A], the remaining activity at 17 µM under setting [1] was in the range of 10 to 80%.

For `C=C(C)[C@H](CCC(C)(C)O)Cc1c(O)cc(OC)c2c1O[C@H](c1ccc(O)cc1O)CC2=O` [Kurarinol], the remaining activity at 17 µM under setting [1] is greater than 80%.

Regarding `C=C(C)[C@H](CC=C(C)C)Cc1c(O)cc(OC)c2c1O[C@H](c1ccc(O)cc1O)CC2=O` [Kurarinone], the remaining activity at 17 µM under setting [1] is greater than 80%.

Take `C=C(C)[C@H](CC=C(C)C)Cc1c(O)cc(O)c2c1O[C@H](c1ccccc1O)CC2=O` [Kushenol A]: the remaining activity at 17 µM under setting [1] is greater than 80%.

As for `C=C(C)[C@H](CC=C(C)C)Cc1c(O)c(CC=C(C)C)c(O)c2c1O[C@H](c1ccc(O)cc1O)CC2=O` [Kushenol B], the remaining activity at 17 µM under setting [1] is greater than 80%.

As to `C=C(C)[C@H](CC=C(C)C)Cc1c(O)cc(O)c2c(=O)c(O)c(-c3ccc(O)cc3O)oc12` [Kushenol C], under setting [2], the remaining activity at 17 µM was 10 to 80%.

For `CC(C)=CCc1c(O)c(CC=C(C)C)c2c(c1O)C(=O)C[C@@H](c1ccc(O)cc1O)O2` [Kushenol E], under setting [1], the remaining activity at 17 µM was in the range of 10 to 80%.

As for `C=C(C)[C@H](CC=C(C)C)Cc1c(O)cc(O)c2c1O[C@H](c1ccc(O)cc1O)CC2=O` [Kushenol F], the remaining activity at 17 µM under setting [1] is greater than 80%.

Regarding `C=C(C)[C@H](CC=C(C)C)Cc1c(O)cc(OC)c2c1O[C@H](c1ccc(O)cc1O)[C@@H](O)C2=O` [Kushenol I], the remaining activity at 17 µM under setting [1] is greater than 80%.

Consider `C=C(C)[C@H](CCC(C)(C)O)Cc1c(O)cc(OC)c2c1O[C@H](c1ccc(O)cc1O)[C@H](O)C2=O` [Kushenol K], for which the remaining activity at 17 µM under setting [1] was greater than 80%.

`CC(C)=CCc1c(O)c(CC=C(C)C)c2c(c1O)C(=O)[C@H](O)[C@@H](c1ccc(O)cc1O)O2` [Kushenol L]: the remaining activity at 17 µM under setting [1] is greater than 80%.

For the compound `C=C(C)[C@H](CC=C(C)C)Cc1c(O)cc(OC)c2c1O[C@H](c1ccc(O)cc1O)[C@H](O)C2=O` [Kushenol N], the remaining activity at 17 µM under setting [1] is greater than 80%.

Turning to `COc1cc([C@@H]2CC(=O)c3c(O)cc(O)c(CC=C(C)C)c3O2)c(O)cc1O` [Kushenol W], the remaining activity at 17 µM under setting [1] is greater than 80%.

The IC50 is the point on the concentration scale where inhibition reaches its midpoint.
